The record followed here is publication doi:10.1101/2025.07.02.662713v1, “A FRET-based high-throughput screening assay for the discovery of Mycobacterium tuberculosis DNA ADP-ribosylglycohydrolase DarG inhibitors” (biorxiv, 2025).

The target of assay [1] is T1, MtbDarG MD; CFP-MtbDarG MD (Mycobacterium tuberculosis, UniProt O53605).
T1 construct: gene darG
In words: FRET displacement of PARylated YFP-GAP. The class given is binding.

Another assay addresses T2, PARP14 MD1 (Homo sapiens, UniProt Q460N5).
T2 construct: macrodomain 1 only, CFP fusion, produced as described earlier
T2 sequence (Q460N5 791-978 limits assumed): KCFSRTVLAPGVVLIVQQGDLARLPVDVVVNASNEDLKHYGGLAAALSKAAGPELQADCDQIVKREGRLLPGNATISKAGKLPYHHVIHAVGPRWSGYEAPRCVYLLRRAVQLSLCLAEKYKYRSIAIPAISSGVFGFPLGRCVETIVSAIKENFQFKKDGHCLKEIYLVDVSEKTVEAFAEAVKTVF
As to the kind of experiment: FRET displacement of MARylated YFP-GAP. It counts as binding.

Assay [2] deals with T3, MtbDarG (hydrolysis assay) (Mycobacterium tuberculosis, UniProt O53605).
T3 construct: gene darG
As to the kind of experiment: gel-based ADP-ribosyl-ssDNA hydrolysis assay. The class given is biochemical. The note with it: 1 µM hydrolase, pranlukast 2-250 µM, pre-incubation 10 min; Tris pH 7.5, 37 °C, 30 min.

A further assay addresses T4, PARP15 MD1 (Homo sapiens, UniProt Q460N3).
T4 construct: macrodomain 1 only, CFP fusion, produced as described earlier
T4 sequence (Q460N3 78-267 limits assumed): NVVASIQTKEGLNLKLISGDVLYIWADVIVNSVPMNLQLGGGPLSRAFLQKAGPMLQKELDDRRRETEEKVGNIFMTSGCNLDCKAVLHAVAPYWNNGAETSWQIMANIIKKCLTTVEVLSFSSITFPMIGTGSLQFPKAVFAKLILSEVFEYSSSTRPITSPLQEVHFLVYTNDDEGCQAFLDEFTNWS
As to the kind of experiment: FRET displacement of MARylated YFP-GAP. The class given is binding.

The target in a further assay is T5, T. aq. DarG; T.aq. DarG (Thermus aquaticus, UniProt P0DV57).
T5 construct: recombinant, prepared as previously published
T5 sequence (P0DV57 1-360): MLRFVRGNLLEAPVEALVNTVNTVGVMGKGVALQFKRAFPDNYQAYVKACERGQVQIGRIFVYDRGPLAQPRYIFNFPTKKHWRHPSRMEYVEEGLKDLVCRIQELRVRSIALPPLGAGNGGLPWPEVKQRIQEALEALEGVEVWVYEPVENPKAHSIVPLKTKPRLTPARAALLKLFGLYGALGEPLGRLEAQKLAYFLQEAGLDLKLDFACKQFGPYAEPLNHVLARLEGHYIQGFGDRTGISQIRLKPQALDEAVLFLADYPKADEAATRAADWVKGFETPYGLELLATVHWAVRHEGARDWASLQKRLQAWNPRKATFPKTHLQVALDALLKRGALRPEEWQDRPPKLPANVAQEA
As to the kind of experiment: gel-based ADP-ribosyl-ssDNA hydrolysis assay. It counts as biochemical. The note with it: 1 µM hydrolase, pranlukast 2-250 µM, pre-incubation 10 min; Tris pH 7.5, 37 °C, 30 min. The source says:
gel-based ADP-ribosyl-ssDNA hydrolysis assay on T. aq. DarG; T.aq.

The next assay deals with T6, PARP9 MD1 (Homo sapiens, UniProt Q8IXQ6).
T6 construct: macrodomain 1 only, CFP fusion, produced as described earlier
In words: FRET displacement of MARylated YFP-GAP. The class given is binding.

The target in the next assay is T7, SCO6735 (Streptomyces coelicolor, UniProt Q9X7P1).
T7 construct: recombinant, prepared as previously published
T7 sequence (Q9X7P1 1-161): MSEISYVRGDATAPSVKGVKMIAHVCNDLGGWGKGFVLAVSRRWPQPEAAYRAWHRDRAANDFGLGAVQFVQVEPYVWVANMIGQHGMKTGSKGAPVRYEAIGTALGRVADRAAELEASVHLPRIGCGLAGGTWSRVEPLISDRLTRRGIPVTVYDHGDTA
In words: gel-based ADP-ribosyl-ssDNA hydrolysis assay. The conditions noted are these: 1 µM hydrolase, pranlukast 2-250 µM, pre-incubation 10 min; Tris pH 7.5, 37 °C, 30 min. It counts as biochemical.

T1 sequence (O53605 1-155): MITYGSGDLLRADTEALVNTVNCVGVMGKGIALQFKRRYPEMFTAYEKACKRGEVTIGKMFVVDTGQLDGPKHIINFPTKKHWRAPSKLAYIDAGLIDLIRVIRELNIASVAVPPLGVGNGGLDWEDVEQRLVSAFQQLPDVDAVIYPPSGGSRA
T3 sequence (O53605 whole entry): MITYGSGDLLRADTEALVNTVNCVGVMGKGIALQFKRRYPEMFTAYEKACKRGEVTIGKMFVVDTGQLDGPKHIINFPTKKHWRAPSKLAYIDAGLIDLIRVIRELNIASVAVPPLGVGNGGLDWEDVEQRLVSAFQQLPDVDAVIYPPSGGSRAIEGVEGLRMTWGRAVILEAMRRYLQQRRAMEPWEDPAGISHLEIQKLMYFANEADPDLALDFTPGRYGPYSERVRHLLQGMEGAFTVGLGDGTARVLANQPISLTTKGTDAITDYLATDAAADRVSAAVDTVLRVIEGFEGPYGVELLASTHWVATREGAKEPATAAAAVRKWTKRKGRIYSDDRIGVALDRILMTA

`COc1ccc(-c2ccccc2)cc1NS(=O)(=O)c1cc(Cl)cc(Cl)c1O` [BMS303141] registered an IC50 in assay [1] of 18.7 µM.
In assay [1], `Cc1cc(SCc2sc(-c3ccc(C(F)(F)F)cc3)nc2C)ccc1OCC(=O)O` [GW501516] came in with an IC50 of 56.5 µM. Against the preceding compound, the IC50 is about 3-fold higher.
As for `O=C(Nc1cccc2c(=O)cc(-c3nn[nH]n3)oc12)c1ccc(OCCCCc2ccccc2)cc1` [pranlukast], the IC50 on PARP14 MD1 is around 100 µM; on PARP15 MD1, around 100 µM; in assay [1], 4 µM; on PARP9 MD1 it was around 100 µM. For the same compound, the “gel-based ADP-ribosyl-ssDNA hydrolysis assay” value is “pranlukast inhibited the enzymatic activity of MtbDarG on this ADP-ribosylated ssDNA substrate” in assay [2]; “pranlukast exhibited an even higher inhibitory potency against DarG from Thermus aquaticus bacterium” on T. aq. DarG; T.aq. DarG; “DarG from Thermus aquaticus bacterium (T.aq. DarG) and SCO6735” at SCO6735.
On to `O=C(O)C(=O)c1cn(Cc2ccccc2)c2ccc(-c3ccc(OC(F)(F)F)cc3)cc12` [tiplaxtinin], for which the IC50 in assay [1] is 5.7 µM.
